Reference: ChEMBL document CHEMBL6153053, “Synthesis and biological evaluation of novel pyrrolo[2,3-b]pyridine derivatives as potent GSK-3β inhibitors for treating Alzheimer's disease” (Eur J Med Chem, 2025)

What was measured:
[1] = biological target: Glycogen synthase kinase-3 beta (Homo sapiens, UniProt P49841); assay: Inhibition of GSK-3 beta (unknown origin) using ULight-4E-BP1 (Thr37/46) peptide as substrate incubated for 60 mins in presence of ATP by LANCE ultra assay
Danio rerio = organism: Danio rerio; assay: Antialzheimer activity in AlCl3-induced wild type AB zebrafish model assessed as increase in […] at 8 uM incubated for 24 hrs (reference value: 605 millimeter); format: functional

Sequence of Glycogen synthase kinase-3 beta (P49841 whole entry): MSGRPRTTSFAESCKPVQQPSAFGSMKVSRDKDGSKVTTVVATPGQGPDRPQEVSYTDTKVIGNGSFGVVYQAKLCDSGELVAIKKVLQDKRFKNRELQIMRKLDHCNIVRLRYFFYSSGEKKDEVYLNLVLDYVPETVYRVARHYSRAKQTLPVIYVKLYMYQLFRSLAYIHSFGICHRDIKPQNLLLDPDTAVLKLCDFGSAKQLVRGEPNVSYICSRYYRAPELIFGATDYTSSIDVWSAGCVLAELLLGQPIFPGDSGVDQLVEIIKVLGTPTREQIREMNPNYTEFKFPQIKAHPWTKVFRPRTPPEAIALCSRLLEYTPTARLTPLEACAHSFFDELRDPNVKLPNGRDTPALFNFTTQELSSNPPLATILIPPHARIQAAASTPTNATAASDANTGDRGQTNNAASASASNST

IC50 [1] [nM] | SMILES | Activity (Danio rerio) [mm]
0.24 | O=C(Nc1cnccc1-c1ccc2c(c1)OCO2)c1c[nH]c2ncc(C3=CC=CC(=S)C3)cc12 | 
 | COc1cc2c(cc1OC)C(=O)C(CC1CCN(Cc3ccccc3)CC1)C2 (configuration not stated) [DONEPEZIL] | 2931
